Columns and labels:
human P2X2/3 receptor = target: T1, human P2X2/3 receptor (Homo sapiens, UniProt P56373+Q9UBL9); assay: P2X3/P2X2/3 FLIPR (Fluorometric Imaging Plate Reader) Assay, P2X2/3; type: cell-based; settings: CHO-K1 cells transfected with human P2X2/3; agonist α,β-meATP 5 μM; Table 1; read-out: P2X2/3 pKi (converted)
T1 construct: expressed in transfected cells; host or cells: CHO-K1
T1 sequence (Q9UBL9 1-471): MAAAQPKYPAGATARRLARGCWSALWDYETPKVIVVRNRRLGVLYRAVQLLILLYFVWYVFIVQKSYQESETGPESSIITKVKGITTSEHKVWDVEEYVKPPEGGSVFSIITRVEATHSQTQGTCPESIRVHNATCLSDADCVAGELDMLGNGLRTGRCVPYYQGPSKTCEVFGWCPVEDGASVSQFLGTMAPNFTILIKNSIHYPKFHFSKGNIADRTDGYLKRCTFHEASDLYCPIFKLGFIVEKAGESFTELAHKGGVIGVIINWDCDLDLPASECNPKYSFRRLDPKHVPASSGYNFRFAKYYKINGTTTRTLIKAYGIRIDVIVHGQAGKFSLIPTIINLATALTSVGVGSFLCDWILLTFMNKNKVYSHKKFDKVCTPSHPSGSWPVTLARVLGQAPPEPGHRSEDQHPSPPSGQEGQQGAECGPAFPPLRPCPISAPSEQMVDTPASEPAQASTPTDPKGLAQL
T1 sequence (P56373 1-397): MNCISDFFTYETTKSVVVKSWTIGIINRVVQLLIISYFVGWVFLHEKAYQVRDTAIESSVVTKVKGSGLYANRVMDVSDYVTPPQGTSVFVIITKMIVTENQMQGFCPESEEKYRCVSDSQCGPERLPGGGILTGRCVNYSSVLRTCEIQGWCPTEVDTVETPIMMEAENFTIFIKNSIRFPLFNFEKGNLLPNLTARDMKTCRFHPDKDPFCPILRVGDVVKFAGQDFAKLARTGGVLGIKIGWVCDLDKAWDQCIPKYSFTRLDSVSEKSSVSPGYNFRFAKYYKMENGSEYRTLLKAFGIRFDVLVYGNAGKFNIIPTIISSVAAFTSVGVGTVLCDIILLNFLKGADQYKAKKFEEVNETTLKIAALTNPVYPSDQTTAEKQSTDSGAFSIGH
Outline: (§1)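 Compounds were tested as antagonists of agonist-evoked calcium entry in CHO-K1 cells transfected with rat P2X3 or human P2X2/3. After 20 min with compound at room temperature, cells received α,β-meATP at 1 μM (P2X3) or 5 μM (P2X2/3), and peak fluorescence was recorded over 2 min.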

rat P2X3 receptor = target: T2, rat P2X3 receptor (Rattus norvegicus, UniProt P49654); assay: P2X3/P2X2/3 FLIPR (Fluorometric Imaging Plate Reader) Assay, P2X3; type: cell-based; settings: CHO-K1 cells transfected with rat P2X3; agonist α,β-meATP 1 μM; Table 1; read-out: P2X3 pKi (converted)
T2 construct: expressed in transfected cells; host or cells: CHO-K1
T2 sequence (P49654 1-397): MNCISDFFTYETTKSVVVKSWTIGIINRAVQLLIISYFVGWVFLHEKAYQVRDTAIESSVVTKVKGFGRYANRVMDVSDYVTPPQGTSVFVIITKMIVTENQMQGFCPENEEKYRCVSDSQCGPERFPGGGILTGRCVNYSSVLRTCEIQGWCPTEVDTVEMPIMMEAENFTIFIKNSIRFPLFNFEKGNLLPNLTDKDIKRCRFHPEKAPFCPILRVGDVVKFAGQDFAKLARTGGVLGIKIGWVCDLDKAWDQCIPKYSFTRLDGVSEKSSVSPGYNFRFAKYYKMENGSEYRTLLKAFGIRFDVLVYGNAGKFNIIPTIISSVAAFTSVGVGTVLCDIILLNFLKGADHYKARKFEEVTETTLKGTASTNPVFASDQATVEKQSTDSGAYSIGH
Outline: as §1

| Ki (human P2X2/3 receptor) | Ki (rat P2X3 receptor) | SMILES |
| --- | --- | --- |
| 3550 nM | 41.7 nM | C[C@@H](CO)NC(=O)c1cc(-c2ccc(Cl)cn2)cc(-n2ncnc2C(C)(C)C)c1 [Compound 85, 3-(5-tert-Butyl-[1,2,4]triazol-1-yl)-5-(5-chloro-pyridin-2-yl)-N-((S)-2-hydroxy-1-methyl-ethyl)-benzamide] |
| 33.1 nM | 2.29 nM | Cc1ccc(-c2cc(C(=O)NCc3cnc(C)cn3)cc(-n3ncnc3C3CCC3)c2)nc1 [Compound 86, 3-(5-Cyclobutyl-[1,2,4]triazol-1-yl)-N-(5-methyl-pyrazin-2-ylmethyl)-5-(5-methyl-pyridin-2-yl)-benzamide] |
| 35.5 nM | 2.63 nM | Cc1ccc(-c2cc(C(=O)NC(C)c3cnccn3)cc(-n3ncnc3C3CCC3)c2)nc1 (centres unmarked) [Compound 87, 3-(5-Cyclobutyl-[1,2,4]triazol-1-yl)-5-(5-methyl-pyridin-2-yl)-N-(1-pyrazin-2-yl-ethyl)-benzamide] |
| 89.1 nM | 4.17 nM | Cc1cnc(CNC(=O)c2cc(-c3ccc(Cl)cn3)cc(-n3ncnc3CC(C)C)c2)cn1 [Compound 89, 3-(5-Chloro-pyridin-2-yl)-5-(5-isobutyl-[1,2,4]triazol-1-yl)-N-(5-methyl-pyrazin-2-ylmethyl)-benzamide] |
| 646 nM | 4.07 nM | CC(C)Cc1ncnn1-c1cc(C(=O)N[C@@H](C)CO)cc(-c2ccc(Cl)cn2)c1 [Compound 90, 3-(5-Chloro-pyridin-2-yl)-N-((S)-2-hydroxy-1-methyl-ethyl)-5-(5-isobutyl-[1,2,4]triazol-1-yl)-benzamide] |
| 2950 nM | 31.6 nM | CC(NC(=O)c1cc(-c2ccc(Cl)cn2)cc(-n2ncnc2CF)c1)c1cnccn1 (centres unmarked) [Compound 91, 3-(5-Chloro-pyridin-2-yl)-5-(5-fluoromethyl-[1,2,4]triazol-1-yl)-N-(1-pyrazin-2-yl-ethyl)-benzamide] |
| 2570 nM | 21.4 nM | Cc1cnc(CNC(=O)c2cc(-c3ccc(Cl)cn3)cc(-n3ncnc3CF)c2)cn1 [Compound 92, 3-(5-Chloro-pyridin-2-yl)-5-(5-fluoromethyl-[1,2,4]triazol-1-yl)-N-(5-methyl-pyrazin-2-ylmethyl)-benzamide] |
| 10000 nM | 575 nM | C[C@@H](CO)NC(=O)c1cc(-c2ccc(Cl)cn2)cc(-n2ncnc2CF)c1 [Compound 93, 3-(5-Chloro-pyridin-2-yl)-5-(5-fluoromethyl-[1,2,4]triazol-1-yl)-N-((S)-2-hydroxy-1-methyl-ethyl)-benzamide] |
| 10000 nM | 12.3 nM | Cc1ccc(-c2cc(C(=O)N[C@@H](C)CO)cc(-n3ncnc3C(C)(C)C)c2)nc1 [Compound 94, 3-(5-tert-Butyl-[1,2,4]triazol-1-yl)-N-((S)-2-hydroxy-1-methyl-ethyl)-5-(5-methyl-pyridin-2-yl)-benzamide] |
| 117 nM | 5.37 nM | Cc1ccc(-c2cc(C(=O)NC(C)c3cnccn3)cc(-n3ncnc3C(C)(C)C)c2)nc1 (centres unmarked) [Compound 95, 3-(5-tert-Butyl-[1,2,4]triazol-1-yl)-5-(5-methyl-pyridin-2-yl)-N-(1-pyrazin-2-yl-ethyl)-benzamide] |
| 1260 nM | 4.57 nM | Cc1ccc(-c2cc(C(=O)NC3CC3)cc(-n3ncnc3C(F)(F)F)c2)nc1 [Compound 96, N-Cyclopropyl-3-(5-methyl-pyridin-2-yl)-5-(5-trifluoromethyl-[1,2,4]triazol-1-yl)-benzamide] |
| 4680 nM | 8.13 nM | Cc1ccc(-c2cc(C(=O)N[C@@H](C)CO)cc(-n3ncnc3C(F)(F)F)c2)nc1 [Compound 97, N-((S)-2-Hydroxy-1-methyl-ethyl)-3-(5-methyl-pyridin-2-yl)-5-(5-trifluoromethyl-[1,2,4]triazol-1-yl)-benzamide] |
| 45.7 nM | 2.24 nM | Cc1ccc(-c2cc(C(=O)NC(C)c3cnccn3)cc(-n3ncnc3C(F)(F)F)c2)nc1 (centres unmarked) [Compound 98, 3-(5-Methyl-pyridin-2-yl)-N-(1-pyrazin-2-yl-ethyl)-5-(5-trifluoromethyl-[1,2,4]triazol-1-yl)-benzamide] |
| 36.3 nM | 3.24 nM | Cc1ccc(-c2cc(C(=O)NCc3cnc(C)cn3)cc(-n3ncnc3C(F)(F)F)c2)nc1 [Compound 99, N-(5-Methyl-pyrazin-2-ylmethyl)-3-(5-methyl-pyridin-2-yl)-5-(5-trifluoromethyl-[1,2,4]triazol-1-yl)-benzamide] |
| 2040 nM | 10.2 nM | Cc1ccc(-c2cc(C(=O)NC(C)c3cnccn3)cc(-n3ncnc3C)c2)nc1 (centres unmarked) [Compound 100, 3-(5-Methyl-pyridin-2-yl)-5-(5-methyl-[1,2,4]triazol-1-yl)-N-(1-pyrazin-2-yl-ethyl)-benzamide] |
| 1150 nM | 7.94 nM | Cc1ccc(-c2cc(C(=O)NCc3cnc(C)cn3)cc(-n3ncnc3C)c2)nc1 [Compound 101, N-(5-Methyl-pyrazin-2-ylmethyl)-3-(5-methyl-pyridin-2-yl)-5-(5-methyl-[1,2,4]triazol-1-yl)-benzamide] |
| 10000 nM | 263 nM | Cc1ccc(-c2cc(C(=O)N[C@@H](C)CO)cc(-n3ncnc3C)c2)nc1 [Compound 102, N-((S)-2-Hydroxy-1-methyl-ethyl)-3-(5-methyl-pyridin-2-yl)-5-(5-methyl-[1,2,4]triazol-1-yl)-benzamide] |
| 10000 nM | 724 nM | Cc1ccc(-c2cc(C(=O)NC(C)CN(C)C)cc(-n3ncnc3C(C)N(C)C)c2)cc1 (centres unmarked) [Compound 103, 5-[5-(1-Dimethylamino-ethyl)-[1,2,4]triazol-1-yl]-4′-methyl-biphenyl-3-carboxylic acid (2-dimethylamino-1-methyl-ethyl)-amide] |
| 407 nM | 7.76 nM | Cc1ccc(-c2cc(C(=O)NC3CC3)cc(-n3ncnc3C(C)N(C)C)c2)cc1 (centres unmarked) [Compound 104, 5-[5-(1-Dimethylamino-ethyl)-[1,2,4]triazol-1-yl]-4′-methyl-biphenyl-3-carboxylic acid cyclopropylamide] |
| 646 nM | 5.25 nM | Cc1ccc(-c2cc(C(=O)N[C@@H](C)CO)cc(-n3ncnc3C(C)N(C)C)c2)cc1 (stereo partly drawn) [Compound 105, 5-[5-(1-Dimethylamino-ethyl)-[1,2,4]triazol-1-yl]-4′-methyl-biphenyl-3-carboxylic acid ((S)-2-hydroxy-1-methyl-ethyl)-amide] |
| 759 nM | 19.1 nM | CCc1ncnn1-c1cc(C(=O)NC(C)c2cnccn2)cc(-c2ccc(Cl)cn2)c1 (centres unmarked) [Compound 106, 3-(5-Chloro-pyridin-2-yl)-5-(5-ethyl-[1,2,4]triazol-1-yl)-N-(1-pyrazin-2-yl-ethyl)-benzamide] |
| 10000 nM | 148 nM | CCc1ncnn1-c1cc(C(=O)N[C@@H](C)CO)cc(-c2ccc(Cl)cn2)c1 [Compound 107, 3-(5-Chloro-pyridin-2-yl)-5-(5-ethyl-[1,2,4]triazol-1-yl)-N-((S)-2-hydroxy-1-methyl-ethyl)-benzamide] |
| 4270 nM | 97.7 nM | CCc1ncnn1-c1cc(C(=O)NC2CC2)cc(-c2ccc(Cl)cn2)c1 [Compound 108, 3-(5-Chloro-pyridin-2-yl)-N-cyclopropyl-5-(5-ethyl-[1,2,4]triazol-1-yl)-benzamide] |
| 372 nM | 5.5 nM | CCCc1ncnn1-c1cc(C(=O)NCc2cnc(C)cn2)cc(-c2ccc(Cl)cn2)c1 [Compound 109, 3-(5-Chloro-pyridin-2-yl)-N-(5-methyl-pyrazin-2-ylmethyl)-5-(5-propyl-[1,2,4]triazol-1-yl)-benzamide] |
| 355 nM | 7.24 nM | CCCc1ncnn1-c1cc(C(=O)NC(C)c2cnccn2)cc(-c2ccc(Cl)cn2)c1 (centres unmarked) [Compound 110, 3-(5-Chloro-pyridin-2-yl)-5-(5-propyl-[1,2,4]triazol-1-yl)-N-(1-pyrazin-2-yl-ethyl)-benzamide] |
